# Test results published in ChEMBL document CHEMBL5331069, “Potential of glycyrrhizic and glycyrrhetinic acids against influenza type A and B viruses: A perspective to develop new anti-influenza compounds and drug delivery systems” (Eur J Med Chem, 2023).
# Legend:
# [1] = Cytotoxicity against MDCK cells assessed as reduction in cell viability incubated for 72 hrs by MTT assay; assay type: toxicity, cell-based, Canis lupus familiaris; conditions: dog
# [2] = test system: Influenza A virus; test: Antiviral activity against influenza A virus A/California/07/09(H1N1)pdm09 infected in MDCK cells assessed as reduction in viral titer by agglutination assay; assay type: functional, organism-based; conditions: A/California/07/09(H1N1)pdm09, MDCK
# [3] = test system: Influenza A virus; test: Antiviral activity against influenza A virus A/Pert/16/09(H3N2) infected in MDCK cells assessed as reduction in viral titer by agglutination assay; assay type: functional, organism-based
# [4] = Cytotoxicity against MDCK cells assessed as reduction in cell viability incubated for 48 hrs; assay type: toxicity, cell-based, Canis lupus familiaris; conditions: dog
# [5] = test system: Influenza A virus; test: Antiviral activity against Influenza A virus A/Aichi/2/68(H3N2) infected in MDCK cells assessed as inhibition of virus-induced cytopathicity; assay type: functional, organism-based
# [6] = test system: Influenza B virus; test: Antiviral activity against influenza B virus B/Brisben/60/08 infected in MDCK cells assessed as reduction in viral titer by agglutination assay; assay type: functional, organism-based; conditions: B/Brisben/60/08, MDCK
# [7] = test system: Influenza A virus; test: Antiviral activity against influenza A virus A/NIBRG/14/H5N1 infected in MDCK cells assessed as reduction in viral titer by agglutination assay; assay type: functional, organism-based; conditions: A/NIBRG/14/H5N1, MDCK
# [8] = test system: Influenza A virus; test: Antiviral activity against Influenza A virus A/WSN/33(H1N1) infected in MDCK cells assessed as inhibition of virus-induced cytopathic effect incubated for 48 hrs by CellTiter-Glo assay; assay type: functional, organism-based
# [9] = Cytotoxicity against MDCK cells assessed as reduction in cell viability incubated for 48 hrs by CellTiter-Glo assay; assay type: toxicity, cell-based, Canis lupus familiaris; conditions: dog
# [10] = test system: Influenza A virus; test: Antiviral activity against influenza A virus H1N1/pdm09 infected in MDCK cells assessed as reduction in viral titer preincubated with compound for 1 hr followed by virus infection incubated for 48 hrs followed by addition of chicken erythrocytes measured after 40 mins by hemagglutination assay; assay type: functional, organism-based
# [11] = Cytotoxicity against MDCK cells assessed as reduction in cell viability incubated for 48 hrs by MTT assay; assay type: toxicity, cell-based, Canis lupus familiaris; conditions: dog
# [12] = test system: Influenza A virus; test: Antiviral activity against influenza A virus A/WSN/33(H1N1) infected in BALB/c mouse assessed as log reduction in viral load in lungs at 5 mg/kg administered intranasally for 5 days; assay type: functional; conditions: route nas, time 5 day
# [13] = Oral bioavailability in rat; assay type: ADME, organism-based; conditions: in vivo
# [14] = Water solubility of the compound by shake flask method; assay type: physicochemical; conditions: buffer
# [15] = Water solubility of the compound; assay type: physicochemical
structure (smiles),measurement,setting,value
COC(=O)C(Cc1c[nH]c2ccccc12)NC(=O)[C@H]1O[C@@H](O[C@H]2[C@H](O[C@H]3CC[C@]4(C)[C@H]5C(=O)C=C6[C@@H]7C[C@@](C)(C(=O)NC(Cc8c[nH]c9ccccc89)C(=O)OC)CC[C@]7(C)CC[C@@]6(C)[C@]5(C)CC[C@H]4C3(C)C)O[C@H](C(=O)NC(Cc3c[nH]c4ccccc34)C(=O)OC)[C@@H](O)[C@@H]2O)[C@H](O)[C@@H](O)[C@@H]1O (stereo partly drawn),CC50 at 72 h,[1],620 µg/mL
same,EC50,[2],20.7 µg/mL
same,EC50,[3],74.4 µg/mL
CC(=O)N(CCS[C@@H]1O[C@H](C(=O)O)[C@@H](O)[C@H](O)[C@H]1O)[C@H]1CC[C@]2(C)[C@H]3C(=O)C=C4[C@@H]5C[C@@](C)(C(=O)O)CC[C@]5(C)CC[C@@]4(C)[C@]3(C)CC[C@H]2C1(C)C,CC50 at 48 h,[4],> 250 µg/mL
same,IC50,[5],87 µg/mL
CCOC(=O)C(Cc1c[nH]c2ccccc12)NC(=O)[C@H]1O[C@@H](O[C@H]2[C@H](O[C@H]3CC[C@]4(C)[C@H]5C(=O)C=C6[C@@H]7C[C@@](C)(C(=O)NC(Cc8c[nH]c9ccccc89)C(=O)OCC)CC[C@]7(C)CC[C@@]6(C)[C@]5(C)CC[C@H]4C3(C)C)O[C@H](C(=O)NC(Cc3c[nH]c4ccccc34)C(=O)OCC)[C@@H](O)[C@@H]2O)[C@H](O)[C@@H](O)[C@@H]1O (stereo partly drawn),CC50 at 72 h,[1],> 500 µg/mL
same,EC50,[2],44.5 µg/mL
same,EC50,[6],50 µg/mL
same,EC50,[3],33 µg/mL
same,EC50,[7],17.5 µg/mL
CC1(C)[C@@H](SCCS[C@@H]2O[C@H](C(=O)O)[C@@H](O)[C@H](O)[C@H]2O)CC[C@]2(C)[C@H]3C(=O)C=C4[C@@H]5C[C@@](C)(C(=O)O)CC[C@]5(C)CC[C@@]4(C)[C@]3(C)CC[C@@H]12,CC50 at 48 h,[4],> 250 µg/mL
same,IC50,[5],54 µg/mL
CC(=O)O[C@@H]1[C@@H](OC(C)=O)[C@H]2O[C@H]3[C@H](OC(C)=O)[C@@H](OC(C)=O)[C@@H](O[C@H]4[C@H](OC(C)=O)[C@@H](OC(C)=O)[C@@H](O[C@H]5[C@H](OC(C)=O)[C@@H](OC(C)=O)[C@@H](O[C@H]6[C@H](OC(C)=O)[C@@H](OC(C)=O)[C@@H](O[C@H]7[C@H](OC(C)=O)[C@@H](OC(C)=O)[C@@H](O[C@H]8[C@H](OC(C)=O)[C@@H](OC(C)=O)[C@@H](O[C@@H]1[C@@H](Cn1cc(CN9CCN(CCNC(=O)[C@@]%10(C)CC[C@]%11(C)CC[C@]%12(C)C(=CC(=O)[C@@H]%13[C@@]%14(C)CC[C@H](O)C(C)(C)[C@@H]%14CC[C@]%13%12C)[C@@H]%11C%10)CC9)nn1)O2)O[C@@H]8Cn1cc(CN2CCN(CCNC(=O)[C@@]8(C)CC[C@]9(C)CC[C@]%10(C)C(=CC(=O)[C@@H]%11[C@@]%12(C)CC[C@H](O)C(C)(C)[C@@H]%12CC[C@]%11%10C)[C@@H]9C8)CC2)nn1)O[C@@H]7Cn1cc(CN2CCN(CCNC(=O)[C@@]7(C)CC[C@]8(C)CC[C@]9(C)C(=CC(=O)[C@@H]%10[C@@]%11(C)CC[C@H](O)C(C)(C)[C@@H]%11CC[C@]%109C)[C@@H]8C7)CC2)nn1)O[C@@H]6Cn1cc(CN2CCN(CCNC(=O)[C@@]6(C)CC[C@]7(C)CC[C@]8(C)C(=CC(=O)[C@@H]9[C@@]%10(C)CC[C@H](O)C(C)(C)[C@@H]%10CC[C@]98C)[C@@H]7C6)CC2)nn1)O[C@@H]5Cn1cc(CN2CCN(CCNC(=O)[C@@]5(C)CC[C@]6(C)CC[C@]7(C)C(=CC(=O)[C@@H]8[C@@]9(C)CC[C@H](O)C(C)(C)[C@@H]9CC[C@]87C)[C@@H]6C5)CC2)nn1)O[C@@H]4Cn1cc(CN2CCN(CCNC(=O)[C@@]4(C)CC[C@]5(C)CC[C@]6(C)C(=CC(=O)[C@@H]7[C@@]8(C)CC[C@H](O)C(C)(C)[C@@H]8CC[C@]76C)[C@@H]5C4)CC2)nn1)O[C@@H]3Cn1cc(CN2CCN(CCNC(=O)[C@@]3(C)CC[C@]4(C)CC[C@]5(C)C(=CC(=O)[C@@H]6[C@@]7(C)CC[C@H](O)C(C)(C)[C@@H]7CC[C@]65C)[C@@H]4C3)CC2)nn1,IC50,[8],2.86 µM
same,CC50 at 48 h,[9],> 100 µM
COC(=O)CCCCCNC(=O)[C@H]1O[C@@H](O[C@H]2[C@H](O[C@H]3CC[C@]4(C)[C@H]5C(=O)C=C6[C@@H]7C[C@@](C)(C(=O)O)CC[C@]7(C)CC[C@@]6(C)[C@]5(C)CC[C@H]4C3(C)C)O[C@H](C(=O)NCCCCCC(=O)OC)[C@@H](O)[C@@H]2O)[C@H](O)[C@@H](O)[C@@H]1O,EC50,[10],12.7 µg/mL
same,CC50 at 48 h,[11],408 µg/mL
COC(=O)[C@@]1(C)CC[C@]2(C)CC[C@]3(C)[C@H](C(=O)C=C4[C@@]5(C)C=C(C#N)C(=O)C(C)(C)[C@@H]5CC[C@]43C)[C@@H]2C1,log(activity),[12],2.3
O=c1cc(-c2ccccc2)oc2cc(O)c(O)c(O)c12 [BAICALEIN],bioavailability,[13],2.2%
same,solubility,[14],0.15 µg/mL
CC1(C)[C@@H](O)CC[C@]2(C)[C@H]3C(=O)C=C4[C@@H]5C[C@@](C)(C(=O)O)CC[C@]5(C)CC[C@@]4(C)[C@]3(C)CC[C@@H]12 [ENOXOLONE],CC50 at 48 h,[4],7.4 µg/mL
same,solubility,[15],< 10 µg/mL
COC(=O)[C@H]1O[C@@H](SCCN(C(C)=O)[C@H]2CC[C@]3(C)[C@H]4C(=O)C=C5[C@@H]6C[C@@](C)(C(=O)O)CC[C@]6(C)CC[C@@]5(C)[C@]4(C)CC[C@H]3C2(C)C)[C@H](O)[C@@H](O)[C@@H]1O,CC50 at 48 h,[4],> 75 µg/mL
same,IC50,[5],72.1 µg/mL
